# According to patent US7608626B2, “Substituted indolizines and derivatives as CNS agents” (Wyeth, priority 2004, dated 2009):
# Where a name gives a salt, the structure may show the parent alone. Read-outs that look alike come from different tables or passages of the source.
# How the values were obtained:
# [1] = target: T1, human 5-hydroxytryptamine-2C (h-5-HT2C) receptor (Homo sapiens, UniProt P28335); assay: [125I]DOI binding to membranes of CHO cells expressing h-5-HT2C receptor
# T1 construct: expressed in transfected cells; host or cells: Chinese Hamster Ovary (CHO) cells; membrane preparation
# T1 sequence (P28335 33-458): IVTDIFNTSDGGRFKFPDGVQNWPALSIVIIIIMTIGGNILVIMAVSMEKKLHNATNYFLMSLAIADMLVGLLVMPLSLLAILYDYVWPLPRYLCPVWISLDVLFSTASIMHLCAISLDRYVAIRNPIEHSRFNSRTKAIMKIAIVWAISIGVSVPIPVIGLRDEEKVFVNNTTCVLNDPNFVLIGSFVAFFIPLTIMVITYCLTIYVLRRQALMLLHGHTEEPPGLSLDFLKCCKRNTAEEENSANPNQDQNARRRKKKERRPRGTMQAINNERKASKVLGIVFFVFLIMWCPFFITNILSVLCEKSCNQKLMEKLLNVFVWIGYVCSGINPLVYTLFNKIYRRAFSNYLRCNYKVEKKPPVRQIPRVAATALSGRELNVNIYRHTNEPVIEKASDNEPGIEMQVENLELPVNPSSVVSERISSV
# human 5-HT2C receptor = target: T2, human 5-HT2C receptor (Homo sapiens, UniProt P28335); assay: 5-HT2C receptor-stimulated calcium mobilization (FLIPR) in CHO cells; assay type: cell-based; conditions: for Emax: CHO, read-out: 5-HT2C Function Emax (%); for EC50: calcium mobilization, CHO cells, read-out: 5-HT2C Function EC50
# T2 construct: expressed in transfected cells
# T2 sequence (P28335 33-458): T1 sequence (P28335 33-458)
Ki ([1]; read-out: 5-HT2C Affinity Ki) [nM],SMILES,melting point,other results
,"CCc1c(-c2ccccc2)c(CCN)c2ccccn12 (as salt: fumaric acid salt) [Example 2, 2-(3-ethyl-2-phenylindolizin-1-yl)ethylamine]",173 to 176 °C,
,"CCCc1c(-c2ccccc2)c(CCN)c2ccccn12 (as salt: fumaric acid salt) [Example 3, 2-(2-phenyl-3-propylindolizin-1-yl)ethylamine]",169 to 172 °C,
,"CCc1cn2ccccc2c1CCN (as salt: fumaric acid salt) [Example 4, 2-(2-ethylindolizin-1-yl)ethylamine]",170 to 175 °C (dec.),
,"CCc1c(CCN)c2ccccn2c1CC (as salt: fumaric acid salt) [Example 5, 2-(2,3-diethylindolizin-1-yl)ethylamine]",166 to 171 °C,
,"CCNCCc1c(CC)c(CC)n2ccccc12 (as salt: fumaric acid salt) [Example 6, N-[2-(2,3-diethylindolizin-1-yl)ethyl]-N-ethylamine]",154 to 158 °C,
,"CCCc1c(CC)c(CCN)c2ccccn12 (as salt: fumaric acid salt) [Example 7, 2-(2-ethyl-3-propylindolizin-1-yl)ethylamine]",154 to 158 °C,
,"CCCc1c(CC)c(CC(C)N)c2ccccn12 (stereo not drawn) (as salt: fumaric acid salt) [Example 9, 2-(2-ethyl-3-propylindolizin-1-yl)-1-methylethylamine]",184 to 186 °C,
,"CCCc1c(C)c(CC(C)N)c2ccccn12 (stereo not drawn) (as salt: fumaric acid salt) [Example 10, 1-(2-methyl-3-propylindolizin-1-yl)propan-2-amine]",147 to 150 °C,
272,"NCCc1c(-c2ccccc2)cn2ccccc12 [Example 1, 2-(2-phenylindolizin-1-yl)ethylamine]",,
117,"CCc1c(-c2ccccc2)c(CCN)c2ccccn12 [Example 2, 2-(3-ethyl-2-phenylindolizin-1-yl)ethylamine]",,
54,"CCCc1c(-c2ccccc2)c(CCN)c2ccccn12 [Example 3, 2-(2-phenyl-3-propylindolizin-1-yl)ethylamine]",,
,"CCc1cn2ccccc2c1CCN [Example 4, 2-(2-ethylindolizin-1-yl)ethylamine]",,Ki [1]: 121 nM
,"CCc1c(CCN)c2ccccn2c1CC [Example 5, 2-(2,3-diethylindolizin-1-yl)ethylamine]",,Emax (human 5-HT2C receptor): 80%; EC50 (human 5-HT2C receptor): 11 nM; Ki [1]: 35 nM
,"CCCc1c(CC)c(CCN)c2ccccn12 [Example 7, 2-(2-ethyl-3-propylindolizin-1-yl)ethylamine]",,Emax (human 5-HT2C receptor): 100%; EC50 (human 5-HT2C receptor): 19 nM; Ki [1]: 21 nM
208,CCCNCCc1c(CC)c(CCC)n2ccccc12 [Example 8],,
,"CCCc1c(C)c(CC(C)N)c2ccccn12 (stereo not drawn) [Example 10, 1-(2-methyl-3-propylindolizin-1-yl)propan-2-amine]",,Emax (human 5-HT2C receptor): 90%; EC50 (human 5-HT2C receptor): 46 nM; Ki [1]: 17 nM
,"NCCc1c2c(n3ccccc13)CCCC2 [Example 12, 2-(1,2,3,4-tetrahydropyrido[1,2-a]indol-10-yl)ethylamine]",,Ki [1]: 98 nM
,"CSc1ccc2c(c1)C(N1CCN(C)CC1)Cc1ccccc1S2 (stereo not drawn) [Methiothepin, reference compound]",,"Ki ([1]; reference compounds, [125I]DOI radioligand, CHO cell membranes, read-out: Ki (95% confidence interval)): 4.6 nM"

SMILES,Ki ([1]; read-out: 5-HT2C Affinity Ki) [nM],melting point,other results
"CCNCCc1c(CC)c(CC)n2ccccc12 [Example 6, N-[2-(2,3-diethylindolizin-1-yl)ethyl]-N-ethylamine]",228,,
"CCCc1c(CC)c(CC(C)N)c2ccccn12 (stereo not drawn) [Example 9, 2-(2-ethyl-3-propylindolizin-1-yl)-1-methylethylamine]",124,,
"CCCc1c(C)c(CC(N)CC)c2ccccn12 (stereo not drawn) [Example 11, 1-(2-methyl-3-propylindolizin-1-yl)butan-2-amine]",457,,
